Experimental data taken from article PMC8960621, “Solution speciation and human serum protein binding of indium(III) complexes of 8-hydroxyquinoline, deferiprone and maltol” (Journal of Biological Inorganic Chemistry, 2022).

Experiments:
HSA and Tf = experiment: Complex - HSA - Tf ternary systems (three-dimensional fluorescence and UV-vis); type: binding, human; details: pH 7.40; for metal ion Tf bound: 10 μM complex, HSA 5.2 equiv., Tf 0.32 equiv.; for dissociation of the complex: 212 μM HSA and 12.8 μM Tf (ratio 1:21.2:1.28)
Experimental: The reliability of UV–vis and fluorescence spectroscopic techniques in the characterization of the mode of interaction of In(III) complexes with HSA and (apo)Tf was proven in the former sections. Therefore, as a continuation three-dimensional fluorescence and UV–vis spectra were recorded for InQ3 and GaQ3 in the presence of both HSA and Tf (Figs. 7 and S7).
In these experiments, the applied HSA-to-Tf ratio corresponds to their physiological ratio in blood serum (630:38). Figure 8 depicts the intensity changes of the ternary system (complex and both proteins) for InQ3 at λEX = 367 nm and λEM = 530 nm in comparison to the respective binary systems (complex and only one type of protein). Apparently, albumin binding of the complex is indeed achieved in the ternary system, although to a lower extent compared to the InQ3 – HSA binary system, and the Tf binding of In(III) becomes more significant at higher protein concentrations. Consequently, the measured intensity reduces parallel with the decreasing (free and albumin bound) InQ3 concentration. […] Based on these spectra, InQ3 and GaQ3 are at least partly HSA-bound. However, minor dissociation of the complexes is evidenced by the UV–vis spectra (Fig. S7) even at this ratio that is more advanced for InQ3 than for GaQ3 (ca. 30% and 10% metal ion is Tf bound, respectively). The differences between the two complexes become more pronounced by getting closer to the physiologically relevant protein concentrations. In the presence of 212 μM HSA and 12.8 μM Tf (ratio: 1:21.2:1.28), the fluorescence of InQ3 is diminished, as most of the complex decomposes and In(III) is bound to Tf. […] To mimic the blood protein concentrations, three-times higher values would be needed; however, under that conditions fluorometric detection becomes inadequate due to the too high absorbance and light scattering of the samples.
Three-dimensional spectra were recorded for ternary systems containing InQ3 or GaQ3, HSA and Tf in the wavelength range λEX = 250 – 450 nm and λEM = 300 – 700 nm. All three-dimensional spectra were corrected by residual fluorescence of the proteins, inner filter effect and self-absorbance.

[1] = Fraction of non-dissociated tris-ligand complex at 10 μM, pH 7.40 (UV-vis and speciation calculation); type: physicochemical; details: pH 7.4, constants determined at 0.20 M KCl
Text: As a first step, interaction of the tris-ligand In(III) complexes with various LMM blood serum components was investigated and compared to that of GaQ3 studied formerly in our research group. The LMM compounds are considered to be more mobile than the high molecular mass components (HMM) such as proteins, and generally their reaction is characterized by faster kinetics. The role of serum compounds might have importance on the distribution of the In(III) complexes since they may be responsible for (partial) displacement of the originally coordinated ligand and they can also form mixed-ligand complexes. […] All the measurements in this work were performed at 25 °C as most of the stability constants used for the modeling calculations published in the literature were determined at this temperature. UV–vis spectra recorded for the tris-ligand complexes at 10 μM concentration (see Fig. S1a for InQ3) in this buffer show 94%, 90% and < 20% non-dissociated InQ3, InD3 and InM3, respectively, which corresponds well to the fractions obtained using the stability constants determined at 0.20 M KCl: 90% (InQ3), 86% (InD3) and 9% InM3 and 6% InM^2+. […]
For the preparation of stock solutions and samples, Milli-Q water was used. Exact concentration of ligand stock solutions was determined via pH-potentiometric titrations (vide infra). […]

Row | Structure (SMILES) | metal ion Tf bound (HSA and Tf) | dissociation of the complex (HSA and Tf) | fraction of tris-ligand complex obtained using the stability constants [1] [%]
1 | [Ga+3].[O-]c1cccc2cccnc12.[O-]c1cccc2cccnc12.[O-]c1cccc2cccnc12 [GaQ3, Tris(8-Quinolinolato)gallium(III), reference compound] | ~10% | 25% | 
2 | Cc1c([O-])c(=O)ccn1C.Cc1c([O-])c(=O)ccn1C.Cc1c([O-])c(=O)ccn1C.[In+3] [InD3] |  |  | 86
3 | [In+3].[O-]c1cccc2cccnc12.[O-]c1cccc2cccnc12.[O-]c1cccc2cccnc12 [InQ3, Tris(8-Quinolinolato)indium(III)] | ca. 30% | practically completely dissociated | 90
